Assay results published in patent publication US4782070A, “Cerebral dysfunction therapeutic agent, which comprises a dihydropyridine compound” (Fujisawa Pharmaceutical Co., Ltd., priority 1986, dated 1988).

What was measured:
[1] = system: rat with transient cerebral ischemia; details: cited from earlier work
[2] = system: cerebral circulation; details: cited from earlier work
[3] = system: isolated canine basilar artery; assay: Effect on isolated canine basilar artery (relaxation of KCl contraction); parameters: species or system mongrel dogs; details: Canis lupus familiaris; dose inducing 50% relaxation; contraction by 35 mM KCl; papaverine 0.1 mM = 100%; mean±standard error; read-out: ED50 (the source's name)
Method: Under pentobarbital sodium anesthesia (35 mg/kg, ip or 30 mg/kg, iv), the basilar arteries (outside diameter: 1.0-1.5 mm) were isolated from mongrel dogs (weighing 8-18 kg) of either sex (6 dogs per group) and cut spirally (width 1 mm×length 15-20 mm). The spiral strips were suspended in a Tyrode's solution aerating with a gas mixture of 95% oxygen and 5% carbon dioxide, and the resting tension was adjusted to 0.5 g. After 1 hour, 35 mM potassium chloride was added to the organ bath to contract the arteries. The cumulative concentrations of the test compound, dissolved in a mixture of ethanol, polyethylene glycol and distilled water, were then added. Finally 0.1 mM papaverine was given to determine maximum relaxation.

[4] = system: vertebral artery of dog; assay: Effect on blood flow of the vertebral artery of dog; type: in vivo, Mongrel dogs
Method: Mongrel dogs of either sex (5-10 dogs per group), weighing 8-18 kg, were anesthetized with pentobarbital sodium (35 mg/kg, ip) and an electromagnetic flowprobe was fitted to the right vertebral artery and the blood flow of the vertebral artery was measured by a flow meter. Polyethylene cannulae were inserted into the femoral artery for measurement of blood pressure and into the femoral vein or the duodenum (after celiotomy) for administration of test compounds respectively.
Test compounds were dissolved in a mixture of ethanol, polyethylene glycol and distilled water, and administered in a volume of 0.2 ml/kg (iv) or 0.5 ml/kg (id). Incidentally, dogs were fasted for 18 hours in case of intraduodenum administration.

[5] = system: ischemic cerebral cortex of rat; assay: Effect on blood flow in ischemic cerebral cortex of rat; type: in vivo, Male Wistar rats; details: po; for Increase in Blood Flow (Time-course of Vasodilation in Cortex of Occlusion Side): 1 mg/kg
Method: Male Wistar rats (5 rats per group), weighing 229-300 g, were anesthetized with thiopental sodium (50 mg/kg, ip). A skin incision was made in the middle of the right external auditory canal and the orbit, and a craniectomy (diameter: 2-2.5 mm) was made, using a dental drill, in the middle of the foramen ovale and the foramen opticum. After the dura was opened, the middle cerebral artery was exposed and occluded by electrocauterization using bipolar cautery.
After closure of the surgical wound, aminobenzylpenicillin (200 mg/kg) was divisionally administered into the operated part and subcutaneously.
One week after the surgery, the rats were anesthetized with urethane (1.25 g/kg, sc) and cannulae for artificial respiration and for measurement of blood pressure were inserted into the trachea and into the right femoral artery respectively, and then a stomach tube for administration of test compounds was inserted into stomach. The rats were fixed to stereotactic head-holders and craniectomies (diameter: 0.5 mm) were made on both sides of parietal skull, and then electrodes for measurement of local cerebral blood flow were inserted into right and left cerebral cortex (A=5, L=±5.0, H=2).
The blood flows of the ischemic (occlusion side) and non-ischemic (non-occlusion side) cerebral cortex of the rats used in this test were 17.4±4.5 and 51.4±1.2 ml/brain 100 g/minute, respectively. Test Compounds were dissolved in 100% polyethylene glycol and administered orally in a volume of 1 ml/kg.
The blood flow was calculated according to the following calculating formula after obtaining a half life (t1/2) from the clearance curve. [formula] λ: partition coefficient of hydrogen gas between blood and tissues (=1.0)
t1/2: a half life of concentration of hydrogen gas in brain

[6] = system: basilar artery; assay: Remitting effect on a model of vasospasm after subarachnoid hemorrhage; type: in vivo, Mongrel cats; details: femoral vein
Method: Mongrel cats of either sex (3-5 cats per group) were anesthetized with pentobarbital sodium (60 mg/kg, sc) and tracheal cannulae were inserted, and the test was carried out under spontaneous respiration. Following transcervical, transclival approach, the canine basilar artery was exposed by opening the dura and arachnoid maters, using an operating microscope. 30 Minutes after the surgery, a mixture of an equal volume of blood and cerebrospinal fluid (CSF) (0.2 ml) preincubated under an aseptic condition (37° C., 6-7 days) was applied on the surface of canine basilar artery. At the same time, the test compound [dissolved in a mixture of ethanol, polyethylene glycol and distilled water (2:1:7, v/v/v), administration volume: 0.2 ml] or only vehicle was administered into the right femoral vein. After 10 minutes, the blood-CSF mixture was carefully removed and microphotographs of the canine basilar artery were taken with the passage of time, and the inside diameter of the artery was measured from the microphotographs.

[7] = system: Production of Lipid Peroxide in cerebral mitochondria of rat; assay: Effect on Production of Lipid Peroxide in cerebral mitochondria of rat; type: biochemical, male Wistar rats; details: 37° C., 1 hour
Method: Cerebral mitochondria of male Wistar rats were isolated and mixed with a mixture of ascorbic acid (100 μM), ferrous sulfate (10 μM), ferric sulfate (20 μM) and test compound, and the mixture was incubated at 37° C. for 1 hour. The amount of malondialdehyde produced in the incubated mixture was measured by thiobarbituric acid method [Shimada et al., Biochim. Biophy. Acta, vol. 489, pp 163-172 (1977)].

[8] = system: ischemic brain; details: Occluded rat, 1.0 mg/kg sc once a day for 3 days
Method: Test compounds (1.0 mg/kg) (dissolved in polyethylene glycol, administration volume: 1 ml/kg) or vehicle was administered sc once a day for 3 days beginning from the fifth day after the surgery. One hour after the last administration, the rats were frozen in liquid nitrogen and then the whole brains of the both side excluding the cerebellum were isolated separately. The right hemisphere was homogenized with ice-cooled 6% perchloric acid (20 times in volume), centrifuged (3000 r.p.m., 10 minutes at 4° C.) and then the supernatant was neutralized with 5M potassium carbonate.
After the neutralization, the supernatant was centrifuged again and the concentrations of adenosine triphosphate (ATP) and lactic acid included in the resulting supernatant were measured by enzymatic assay.

SMILES	improving activity of cerebral circulation [2]	EC50 [3]	Time-course of Changes of Blood Flow ([4]; 32 μg/kg, iv, 5 minutes)	Time-course of Changes of Blood Flow ([4]; 32 μg/kg, iv, 10 minutes)	Time-course of Changes of Blood Flow ([4]; 32 μg/kg, iv, 20 minutes)	Time-course of Changes of Blood Flow ([4]; 32 μg/kg, iv, 30 minutes)	Time-course of Changes of Blood Flow ([4]; 32 μg/kg, iv, 60 minutes)	Time-course of Changes of Blood Flow ([4]; 32 μg/kg, iv, 90 minutes)	Time-course of Changes of Blood Flow ([4]; 32 μg/kg, iv, 120 minutes)	Maximum Changes of Blood Flow ([4]; iv, 3.2 μg/kg)	Maximum Changes of Blood Flow ([4]; iv, 10 μg/kg)	Maximum Changes of Blood Flow ([4]; iv, 32 μg/kg)	Increase in Blood Flow (Time-course of Vasodilation in Cortex of Occlusion Side) ([5]; 15 minutes)	Increase in Blood Flow (Time-course of Vasodilation in Cortex of Occlusion Side) ([5]; 30 minutes)	Increase in Blood Flow (Time-course of Vasodilation in Cortex of Occlusion Side) ([5]; 45 minutes)	Increase in Blood Flow (Time-course of Vasodilation in Cortex of Occlusion Side) ([5]; 60 minutes)	Increase in Blood Flow (Time-course of Vasodilation in Cortex of Occlusion Side) ([5]; 90 minutes)	Increase in Blood Flow (Time-course of Vasodilation in Cortex of Occlusion Side) ([5]; 120 minutes)	Maximum Increase in Blood Flow ([5]; Non-occlusion side, 0.1 mg/kg)	Maximum Increase in Blood Flow ([5]; Non-occlusion side, 1.0 mg/kg)	other results
COCCOC(=O)C1=C(C)NC(C)=C(C(=O)OC(C)C)C1c1cccc([N+](=O)[O-])c1 (stereo not drawn) [nimodipine]	have improving activity of cerebral circulation																				brain ATP content after reperfusion ([1]; after reperfusion): improves; electroencephalogram after reperfusion ([1]; after reperfusion): improves; electroencephalogram and brain ATP content during ischemia ([1]; during ischemia): not improve them during ischemia; liberation of free fatty acids ([1]; same model): no effect
COC(=O)C1=C(C#N)NC(C)=C(C(=O)OC(C)C)C1c1cccc([N+](=O)[O-])c1 (stereo not drawn) [Dihydropyridine Compound A, Isopropyl ester of 6-cyano-5-methoxycarbonyl-2-methyl-4-(3-nitrophenyl)-1,4-dihydropyridine-3-carboxylic acid]		0.33 ± 0.04 nM	109.6 ± 18.3%	96.7 ± 16.2%	81.3 ± 15.5%	77.7 ± 12.5%	71.2 ± 17.5%	61.4 ± 25.7%	52.1 ± 23.1%	39.2 ± 7.2%	86.4 ± 20.6%	109.6 ± 18.3%	17.8 ± 2.4%	27.4 ± 3.7%	32.6 ± 4.6%	28.3 ± 2.5%	21.6 ± 6.4%	17.5 ± 7.3%	13.6 ± 1.7%	26.1 ± 4.8%	Time-course of Changes of Blood Flow ([4]; 32 μg/kg, iv, 180 minutes): 31.0 ± 15.7%; Maximum Changes of Blood Flow ([4]; id, 10 μg/kg): 17.2 ± 6.0%; Maximum Changes of Blood Flow ([4]; id, 32 μg/kg): 39.7 ± 13.1%; Maximum Changes of Blood Flow ([4]; id, 100 μg/kg): 89.3 ± 11.5%; Maximum Increase in Blood Flow ([5]; Occlusion side, 0.1 mg/kg): 12.6 ± 3.1%; Maximum Increase in Blood Flow ([5]; Occlusion side, 1.0 mg/kg): 32.6 ± 4.6%; Time-course of Changes of the Diameter of the Artery ([6]; 10 μg/kg, 15 minutes): 17.0 ± 4.5%; Time-course of Changes of the Diameter of the Artery ([6]; 10 μg/kg, 30 minutes): 17.1 ± 4.6%; Time-course of Changes of the Diameter of the Artery ([6]; 10 μg/kg, 45 minutes): 18.3 ± 5.3%; Time-course of Changes of the Diameter of the Artery ([6]; 10 μg/kg, 60 minutes): 17.8 ± 3.8%; Time-course of Changes of the Diameter of the Artery ([6]; 10 μg/kg, 90 minutes): 15.5 ± 3.2%; Time-course of Changes of the Diameter of the Artery ([6]; 10 μg/kg, 120 minutes): 17.1 ± 5.1%; Time-course of Changes of the Diameter of the Artery ([6]; 100 μg/kg, 15 minutes): 16.6 ± 7.6%; Time-course of Changes of the Diameter of the Artery ([6]; 100 μg/kg, 30 minutes): 15.1 ± 5.1%; Time-course of Changes of the Diameter of the Artery ([6]; 100 μg/kg, 45 minutes): 25.9 ± 7.5%; Time-course of Changes of the Diameter of the Artery ([6]; 100 μg/kg, 60 minutes): 24.4 ± 7.5%; Time-course of Changes of the Diameter of the Artery ([6]; 100 μg/kg, 90 minutes): 21.6 ± 7.3%; Time-course of Changes of the Diameter of the Artery ([6]; 100 μg/kg, 120 minutes): 25.5 ± 7.9%; Inhibition of Production of Lipid Peroxide ([7]; 2.6 × 10^-4 (M)): 100.0%; Inhibition of Production of Lipid Peroxide ([7]; 2.6 × 10^-5 (M)): 96.94 ± 1.03%
COC(=O)C1=C(C)NC(C)=C(C(=O)OCCN(C)Cc2ccccc2)C1c1cccc([N+](=O)[O-])c1 (stereo not drawn) [Nicardipine, reference compound]	have improving activity of cerebral circulation	0.7 ± 0.07 nM	91.7 ± 14.8%	73.4 ± 15.2%	48.1 ± 13.2%	37.0 ± 10.4%	23.0 ± 17.7%	8.2 ± 10.8%	-0.5 ± 8.9%	31.4 ± 5.2%	77.8 ± 17.4%	91.7 ± 14.8%	6.2 ± 1.8%	13.4 ± 2.8%	15.9 ± 2.5%	11.6 ± 2.9%	8.8 ± 4.2%	9.1 ± 5.3%	8.9 ± 3.2%	20.5 ± 5.1%	Maximum Changes of Blood Flow ([4]; id, 320 μg/kg): 33.7 ± 14.3%; Maximum Changes of Blood Flow ([4]; id, 1000 μg/kg): 56.0 ± 28.5%; Maximum Changes of Blood Flow ([4]; id, 3200 μg/kg): 131.3 ± 36.0%; Maximum Increase in Blood Flow ([5]; Occlusion side, 0.1 mg/kg): 6.4 ± 1.3%; Maximum Increase in Blood Flow ([5]; Occlusion side, 1.0 mg/kg): 15.9 ± 2.5%; ATP ([8]; vehicle 1.97 ± 0.06, normal rat 2.38 ± 0.13): 1.92 ± 0.11 μmol/brain 1 g; Lactic acid ([8]; vehicle 3.84 ± 0.28, normal rat 1.83 ± 0.18): 3.84 ± 0.14 μmol/brain 1 g; duration of improving activity of cerebral circulation [2]: short
